In PubChem BioAssay (NCI):
Where “and” joins values, the source holds several entries; their conditions need not be identical. Equal entries are not always repeated.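 Growth conditions: 96-well plates. Treatment: test compound, 48 hours, 5 concentrations. Analysis: linear interpolation between bracketing concentrations; unreached endpoints set to highest concentration. GI50: concentration for 50% inhibition of growth. Definition used: TGI = concentration required for complete inhibition of growth.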

Legend:
Test in all cases: inhibition of tumour cell growth, NCI panel, 48 h
A498 renal = system: A498 renal
CCRF-CEM leukemia = system: CCRF-CEM leukemia
LOX IMVI melanoma = system: LOX IMVI melanoma
LXFL 529 NSCLC = system: LXFL 529 NSCLC
M19-MEL melanoma = system: M19-MEL melanoma
OVCAR-8 ovarian = system: OVCAR-8 ovarian
SF-268 CNS = system: SF-268 CNS
SF-295 CNS = system: SF-295 CNS
SK-MEL-5 melanoma = system: SK-MEL-5 melanoma
SK-OV-3 ovarian = system: SK-OV-3 ovarian
MDA-N = system: MDA-N

SMILES | TGI (A498 renal) [µM] | TGI (CCRF-CEM leukemia) [µM] | TGI (LOX IMVI melanoma) [µM] | TGI (LXFL 529 NSCLC) [µM] | TGI (M19-MEL melanoma) | TGI (OVCAR-8 ovarian) [µM] | TGI (SF-268 CNS) [µM] | TGI (SF-295 CNS) [µM] | TGI (SK-MEL-5 melanoma) [µM] | TGI (SK-OV-3 ovarian) [µM] | GI50 (A498 renal) [µM] | GI50 (LOX IMVI melanoma) [µM] | TGI (MDA-N) [µM] | GI50 (SK-MEL-5 melanoma) [µM]
[O-]/[N+](=C\c1ccccc1)[C@H](COCc1ccccc1)c1ccccc1 | > 100 | > 100 | > 100 | > 100 | > 100 µM | > 100 | > 100 | > 100 | > 100 | > 100 |  |  |  | 
CCC1(O)CC(OC2CC(N(C)C)C(OC3CC4OC5CC(=O)C(C)OC5OC4C(C)O3)C(C)O2)c2c(cc3c(c2O)C(=O)c2c(O)ccc(O)c2C3=O)C1C(=O)OC (stereo not given) | 0.016 |  |  | 1.18 | 0.0705 µM and 0.0241 µM |  |  |  |  |  | 0.00459 | 0.00915 |  | 
O=C(CSc1nnc(-c2ccc(N=Cc3ccc(Cl)cc3)cc2)o1)Nc1ccccc1Cl |  | > 100 | > 100 | > 100 | > 100 µM | > 100 | > 100 | > 100 | > 100 | > 100 |  |  |  | 
CC(=O)OCC1OC(Nc2[nH]c(=O)n(C)c(=O)c2-c2csc(N)n2)C(OC(C)=O)C(OC(C)=O)C1OC(C)=O (stereo not given) | > 100 | > 100 | > 100 | > 100 | > 100 µM | > 100 | > 100 | > 100 | > 100 | > 100 |  |  |  | 
c1ccc(C2=NC3(CCCCC3)N(c3nc4ccccc4s3)N2)nc1 | > 100 | 87.2 | 51.6 |  |  | > 100 | > 100 | > 100 | 40.6 | > 100 |  |  | 86.5 | 
CN(C)CCNc1ccc(C(=O)NCCCN(C)CCCNC(=O)c2ccc(NCCN(C)C)c3c(=O)c4ccccc4[nH]c23)c2[nH]c3ccccc3c(=O)c12 | 1.12 | 1.02 | 0.286 |  |  | 2.39 | 0.544 | 1.91 | 1.06 | 1.3 |  |  | 0.583 | 
Cc1ccc(S(=O)(=O)N/N=C/c2oc(-c3cccc([N+](=O)[O-])c3)c(-c3cccc([N+](=O)[O-])c3)c2[N+](=O)[O-])cc1 | > 100 | 56.8 | 33.5 | > 100 |  | > 100 | 66.7 | > 100 | > 100 | 68.5 |  |  |  | 
COC(=O)c1c2c(cc3c1CC1(Cc4ccccc4C1=O)C3)CCC2 (stereo not given) | > 100 | > 100 | > 100 |  |  | > 100 | > 100 | > 100 | 29.5 | > 100 |  |  | 34.2 | 
O=C1C2CCCCC2C(=O)N1n1c(Cc2ccc(Cl)cc2)n[nH]c1=O (stereo not given) | > 100 | > 100 | > 100 |  |  | > 100 | > 100 | > 100 | > 100 | > 100 |  |  | > 100 | 
C1OCC2S[C@@H]3COCO[C@@H]3C2O1 (stereo not given in full) | > 100 | > 100 | > 100 | > 100 | > 100 µM | > 100 | > 100 | > 100 | > 100 | > 100 |  |  |  | 
COc1ccc(/C=C2\CN(C)Cc3c2nc(N)nc3-c2ccc(OC)cc2)cc1 | > 100 | > 100 | > 100 | > 100 | > 100 µM | > 100 | > 100 | > 100 | > 100 | > 100 |  |  |  | 
CCC(C)[C@H](NC(=O)[C@H](Cc1ccccc1)NC(=O)N(CC)c1ccccc1)C(=O)N[C@@H](CC(C)C)C(=O)OC (stereo not given in full) | > 100 | 66.7 | > 100 |  |  | > 100 | > 100 | > 100 | 59.8 | > 100 |  |  | > 100 | 
CN(C)CC(/C(Cc1ccccc1)=N\NC(=O)C[n+]1ccccc1)c1ccccc1 (stereo not given) | > 100 | > 100 |  | > 100 | > 100 µM | > 100 | > 100 | > 100 | > 100 | > 100 |  |  |  | 
CCCC(=O)O | 10400 | > 18700 | 8470 |  |  | > 18700 | > 18700 | > 18700 | 6100 | > 18700 |  |  | > 18700 | 2410
Cc1c2cc[nH]c(C(F)(F)F)c2cc2c1nc1ccccc12 | > 113 | > 125 | > 125 |  | > 125 µM | > 125 | > 125 | > 125 | > 125 | > 125 |  |  |  | 
Cc1ccc(C)n1-c1ccccc1C1SCCCS1 | > 100 | > 100 | > 100 |  |  | > 100 | > 100 | > 100 | > 100 | > 100 |  |  | > 100 | 
